Measurements: patent publication US20240383923A1, “HETEROARYL DERIVATIVE AND USE THEREOF” (VORONOI INC., priority 2022, published 2024)

System: BT-474 cancer cells
Assay: Inhibition of BT-474 cell proliferation (CellTiter-Glo)
Type: cell-based
Settings: Homo sapiens, BT-474 cells, 120 hours
Method in brief: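 BT-474 cells in RPMI-1640 with 20% FBS, seeded 48 h before dosing with 11 three-fold dilutions (final 0.2 nM to 10 μM). Viability read by CellTiter-Glo luminescence 120 h after treatment, triplicate tests. GI50 derived from growth rate (%) versus control.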

GI50 | SMILES
≤ 50 nM | [2H]C([2H])([2H])Oc1cc(Oc2ccn3ncnc3c2)c(C)cc1Nc1ncnc2cc(OC)c(NC(=O)/C(F)=C\[C@H]3CCCN3C)cc12 [Example 150, (R,E)-N-(4-((4-([1,2,4]triazolo[1,5-a]pyridin-7-yloxy)-2-(methoxy-d3)-5-methylphenyl)amino)-7-methoxyquinazolin-6-yl)-2-fluoro-3-(1-methylpyrrolidin-2-yl)acrylamide]
≤ 50 nM | COc1cc2ncnc(Nc3cc(C)c(Oc4ccc5cccnc5c4)cc3OC)c2cc1NC(=O)/C(F)=C\[C@H]1CCCN1C [Example 88, (R,E)-2-fluoro-N-(7-methoxy-4-((2-methoxy-5-methyl-4-(quinolin-7-yloxy)phenyl)amino)quinazolin-6-yl)-3-(1-methylpyrrolidin-2-yl)acrylamide]
100 to 500 nM | C=CC(=O)N1CCOc2cc3ncnc(Nc4cc(C)c(Oc5ccn6ncnc6c5)cc4OC)c3cc21 [Example 21, 1-(4-((4-([1,2,4]triazolo[1,5-a]pyridin-7-yloxy)-2-methoxy-5-methylphenyl)amino)-7,8-dihydro-6H-[1,4]oxazino[3,2-g]quinazolin-6-yl)prop-2-en-1-one]
≤ 50 nM | COc1cc2ncnc(Nc3cc(C)c(Oc4ccn5ncnc5c4)cc3OC)c2cc1NC(=O)/C=C/CNC1CCS(=O)(=O)CC1 [Example 38, (E)-N-(4-((4-([1,2,4]triazolo[1,5-a]pyridin-7-yloxy)-2-methoxy-5-methylphenyl)amino)-7-methoxyquinazolin-6-yl)-4-((1,1-dioxidotetrahydro-2H-thiopyran-4-yl)amino)but-2-enamide]
≤ 50 nM | C=CC(=O)N1CC(Oc2cc3c(Nc4cc(C)c(Oc5ccn6ncnc6c5)cc4OC)ncnc3cc2OC)C1 [Example 19, 1-(3-((4-((4-([1,2,4]triazolo[1,5-a]pyridin-7-yloxy)-2-methoxy-5-methylphenyl)amino)-7-methoxyquinazolin-6-yl)oxy)azetidin-1-yl)prop-2-en-1-one]
≤ 50 nM | COc1cc2ncnc(Nc3cc(C)c(Oc4ccn5ncnc5c4)cc3OC)c2cc1NC(=O)/C(F)=C/[C@@H]1CCCN1C [Example 112, (S,Z)—N-(4-((4-([1,2,4]triazolo[1,5-a]pyridin-7-yloxy)-2-methoxy-5-methylphenyl)amino)-7-methoxyquinazolin-6-yl)-2-fluoro-3-(1-methylpyrrolidin-2-yl)acrylamide]
≤ 50 nM | COc1cc2ncnc(Nc3cc(C)c(Oc4ccc5scnc5c4)cc3OC)c2cc1NC(=O)/C(F)=C\[C@H]1CCCN1C [Example 84, (R,E)-N-(4-((4-(benzo[d]thiazol-5-yloxy)-2-methoxy-5-methylphenyl)amino)-7-methoxyquinazolin-6-yl)-2-fluoro-3-(1-methylpyrrolidin-2-yl)acrylamide]
≤ 50 nM | COc1cc2ncnc(Nc3cc(C)c(Oc4ccn5ncnc5c4)cc3OC)c2cc1NC(=O)/C(F)=C/[C@H]1CCCN1 [Example 135, (R,Z)—N-(4-((4-([1,2,4]triazolo[1,5-a]pyridin-7-yloxy)-2-methoxy-5-methylphenyl)amino)-7-methoxyquinazolin-6-yl)-2-fluoro-3-(pyrrolidin-2-yl)acrylamide]
> 500 nM | COc1cc2ncnc(Nc3cc(C)c(Oc4ccn5ncnc5c4)cc3OC)c2cc1NC(=O)/C(C#N)=C\C(C)(C)N1CCN(C2COC2)CC1 [Example 144, (Z)—N-(4-((4-([1,2,4]triazolo[1,5-a]pyridin-7-yloxy)-2-methoxy-5-methylphenyl)amino)-7-methoxyquinazolin-6-yl)-2-cyano-4-methyl-4-(4-(oxetan-3-yl)piperazin-1-yl)pent-2-enamide]
> 500 nM | COc1cc2ncnc(Nc3cc(C)c(Oc4ccn5ncnc5c4)cc3OC(F)(F)F)c2cc1NC(=O)/C(F)=C\[C@H]1CCCN1C [Example 105, (R,E)-N-(4-((4-([1,2,4]triazolo[1,5-a]pyridin-7-yloxy)-5-methyl-2-(trifluoromethoxy)phenyl)amino)-7-methoxyquinazolin-6-yl)-2-fluoro-3-(1-methylpyrrolidin-2-yl)acrylamide]
≤ 50 nM | COc1cc2ncnc(Nc3cc(Cl)c(Oc4ccc5c(c4)ncn5C)cc3OC)c2cc1NC(=O)/C(F)=C\[C@H]1CCCN1C [Example 59, (R,E)-N-(4-((5-chloro-2-methoxy-4-((1-methyl-1H-benzo[d]imidazol-5-yl)oxy)phenyl)amino)-7-methoxyquinazolin-6-yl)-2-fluoro-3-(1-methylpyrrolidin-2-yl)acrylamide]
≤ 50 nM | COc1cc2ncnc(Nc3cc(F)c(Oc4ccc5c(c4)ncn5C)cc3OC)c2cc1NC(=O)/C(F)=C/[C@H]1CCCN1C [Example 61, (R,Z)-2-fluoro-N-(4-((5-fluoro-2-methoxy-4-((1-methyl-1H-benzo[d]imidazol-5-yl)oxy)phenyl)amino)-7-methoxyquinazolin-6-yl)-3-(1-methylpyrrolidin-2-yl)acrylamide]
≤ 50 nM | COc1cc2ncnc(Nc3cc(C)c(Oc4ccc5ncsc5c4)cc3OC)c2cc1NC(=O)/C(F)=C\[C@H]1CCCN1C [Example 81, (R,E)-N-(4-((4-(benzo[d]thiazol-6-yloxy)-2-methoxy-5-methylphenyl)amino)-7-methoxyquinazolin-6-yl)-2-fluoro-3-(1-methylpyrrolidin-2-yl)acrylamide]
≤ 50 nM | COc1cc(Oc2ccn3ncnc3c2)c(C)cc1Nc1ncnc2cc(OCCN3CCOCC3)c(NC(=O)/C(F)=C/[C@H]3CCCN3C)cc12 [Example 101, (R,Z)—N-(4-((4-([1,2,4]triazolo[1,5-a]pyridin-7-yloxy)-2-methoxy-5-methylphenyl)amino)-7-(2-morpholinoethoxy)quinazolin-6-yl)-2-fluoro-3-(1-methylpyrrolidin-2-yl)acrylamide]
≤ 50 nM | COc1cc(Oc2ccn3ncnc3c2)c(C)cc1Nc1ncnc2ccc(NC(=O)/C(F)=C/[C@H]3CCCN3C)c(Cl)c12 [Example 141, (R,Z)—N-(4-((4-([1,2,4]triazolo[1,5-a]pyridin-7-yloxy)-2-methoxy-5-methylphenyl)amino)-5-chloroquinazolin-6-yl)-2-fluoro-3-(1-methylpyrrolidin-2-yl)acrylamide]
≤ 50 nM | COc1cc2ncnc(Nc3cc(C)c(Oc4ccn5ncnc5c4)cc3OC)c2cc1NC(=O)/C(F)=C/C1CCCN1C (stereo not drawn) [Example 43, (Z)—N-(4-((4-([1,2,4]triazolo[1,5-a]pyridin-7-yloxy)-2-methoxy-5-methylphenyl)amino)-7-methoxyquinazolin-6-yl)-2-fluoro-3-(1-methylpyrrolidin-2-yl)acrylamide]
≤ 50 nM | COc1cc2ncnc(Nc3cc(F)c(Oc4ccc5c(c4)ncn5C)cc3OC)c2cc1NC(=O)/C(F)=C\[C@H]1CCCN1C [Example 60, (R,E)-2-fluoro-N-(4-((5-fluoro-2-methoxy-4-((1-methyl-1H-benzo[d]imidazol-5-yl)oxy)phenyl)amino)-7-methoxyquinazolin-6-yl)-3-(1-methylpyrrolidin-2-yl)acrylamide]
100 to 500 nM | CCOc1cc2ncc(C#N)c(Nc3cc(C)c(Oc4ccn5ncnc5c4)cc3OC)c2cc1NC(=O)/C(F)=C\[C@H]1CCCN1C [Example 132, (R,E)-N-(4-((4-([1,2,4]triazolo[1,5-a]pyridin-7-yloxy)-2-methoxy-5-methylphenyl)amino)-3-cyano-7-ethoxyquinolin-6-yl)-2-fluoro-3-(1-methylpyrrolidin-2-yl)acrylamide]
≤ 50 nM | [2H]C([2H])([2H])N1CCC[C@@H]1/C=C(/F)C(=O)Nc1cc2c(Nc3cc(F)c(Oc4ccn5ncnc5c4)cc3OC)ncnc2cc1OC [Example 157, (R,E)-N-(4-((4-([1,2,4]triazolo[1,5-a]pyridin-7-yloxy)-5-fluoro-2-methoxyphenyl)amino)-7-methoxyquinazolin-6-yl)-2-fluoro-3-(1-(methyl-d3)pyrrolidin-2-yl)acrylamide]
≤ 50 nM | C=CC(=O)N1CC2CC1CC2Oc1cc2c(Nc3cc(C)c(Oc4ccn5ncnc5c4)cc3OC)ncnc2cc1OC (stereo not drawn) [Example 18, 1-(5-((4-((4-([1,2,4]triazolo[1,5-a]pyridin-7-yloxy)-2-methoxy-5-methylphenyl)amino)-7-methoxyquinazolin-6-yl)oxy)-2-azabicyclo[2.2.1]heptan-2-yl)prop-2-en-1-one]
≤ 50 nM | COc1cc2ncnc(Nc3cc(C)c(Oc4ccc5cnn(C)c5c4)cc3OC)c2cc1NC(=O)/C(F)=C\[C@H]1CCCN1C [Example 89, (R,E)-2-fluoro-N-(7-methoxy-4-((2-methoxy-5-methyl-4-((1-methyl-1H-indazol-6-yl)oxy)phenyl)amino)quinazolin-6-yl)-3-(1-methylpyrrolidin-2-yl)acrylamide]
≤ 50 nM | COc1cc(Oc2ccn3ncnc3c2)c(C)cc1Nc1ncnc2cc(OC(F)F)c(NC(=O)/C(F)=C/[C@H]3CCCN3C)cc12 [Example 98, (R,Z)—N-(4-((4-([1,2,4]triazolo[1,5-a]pyridin-7-yloxy)-2-methoxy-5-methylphenyl)amino)-7-(difluoromethoxy)quinazolin-6-yl)-2-fluoro-3-(1-methylpyrrolidin-2-yl)acrylamide]
≤ 50 nM | COc1cc2ncnc(Nc3cc(C)c(Oc4cc5ncnn5cn4)cc3OC)c2cc1NC(=O)/C(F)=C/[C@H]1CCCN1C [Example 48, (R,Z)—N-(4-((4-([1,2,4]triazolo[1,5-c]pyrimidin-7-yloxy)-2-methoxy-5-methylphenyl)amino)-7-methoxyquinazolin-6-yl)-2-fluoro-3-(1-methylpyrrolidin-2-yl)acrylamide]
≤ 50 nM | [2H]C([2H])([2H])N1CCC[C@@H]1/C=C(\F)C(=O)Nc1cc2c(Nc3cc(Cl)c(Oc4ccn5ncnc5c4)cc3OC)ncnc2cc1OC [Example 156, (R,Z)—N-(4-((4-([1,2,4]triazolo[1,5-a]pyridin-7-yloxy)-5-chloro-2-methoxyphenyl)amino)-7-methoxyquinazolin-6-yl)-2-fluoro-3-(1-(methyl-d3)pyrrolidin-2-yl)acrylamide]
